Data taken from patent publication US20180303807A1, “ANDROGEN RECEPTOR LIGANDS” (DUKE UNIVERSITY, priority 2015, published 2018).

What follows are compounds tested against T1, AR (Homo sapiens, UniProt P10275) (assay: Reporter gene assay, AR transcriptional (MMTV-Luc) in CV1 cells). Conditions: pcDNA-AR + MMTV-Luc, 0.1 nM R1881 plus test compound, 24 hrs.
T1 construct: expressed in transfected cells; host or cells: CV1 cells
T1 sequence (P10275 1-920): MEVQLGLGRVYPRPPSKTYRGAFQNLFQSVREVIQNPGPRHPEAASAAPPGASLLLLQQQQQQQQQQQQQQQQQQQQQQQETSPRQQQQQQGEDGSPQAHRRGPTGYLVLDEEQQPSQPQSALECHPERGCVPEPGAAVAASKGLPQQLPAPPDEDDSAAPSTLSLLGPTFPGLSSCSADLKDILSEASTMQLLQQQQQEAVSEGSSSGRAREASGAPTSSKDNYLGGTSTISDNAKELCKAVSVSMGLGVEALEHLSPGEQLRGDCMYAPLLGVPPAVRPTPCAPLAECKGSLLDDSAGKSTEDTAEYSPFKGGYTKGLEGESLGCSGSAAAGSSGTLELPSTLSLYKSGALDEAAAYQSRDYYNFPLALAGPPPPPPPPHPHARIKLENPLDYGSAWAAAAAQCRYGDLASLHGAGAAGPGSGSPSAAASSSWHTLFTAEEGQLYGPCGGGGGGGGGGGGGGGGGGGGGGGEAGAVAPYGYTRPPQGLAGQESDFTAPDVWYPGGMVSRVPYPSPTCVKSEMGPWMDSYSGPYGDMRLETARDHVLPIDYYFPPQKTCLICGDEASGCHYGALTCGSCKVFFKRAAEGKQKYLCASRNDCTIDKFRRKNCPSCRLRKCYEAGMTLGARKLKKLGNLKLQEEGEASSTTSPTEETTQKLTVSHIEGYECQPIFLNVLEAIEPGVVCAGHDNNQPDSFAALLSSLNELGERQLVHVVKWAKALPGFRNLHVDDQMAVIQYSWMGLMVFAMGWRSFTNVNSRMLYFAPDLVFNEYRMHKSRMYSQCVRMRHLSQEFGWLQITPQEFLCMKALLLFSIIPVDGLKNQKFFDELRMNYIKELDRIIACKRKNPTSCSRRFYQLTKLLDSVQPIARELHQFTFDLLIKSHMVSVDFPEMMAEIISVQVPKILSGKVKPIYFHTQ
Type: cell-based
Description: Reporter Gene Assay (IC50 determination, Table 2, B1-B3). CV1 cells were seeded into 96-well cell culture plates and transfected with Lipofectin. For AR transcriptional assays, the DNA mixture consisted of pcDNA-AR, MMTV-Luc (androgen responsive reporter gene), and Renilla-Luc (for assessing transfection efficiency and toxicity). Following overnight incubation, cells were induced with hormone (0.1 nM R1881 (synthetic AR agonist) plus increasing concentrations of test compound) for 24 hrs. Cells were lysed and luciferase activity was quantified using Dual Luciferase Reagent (DLR). IC50 determination was assessed using GraphPad Prism software.

Compound | B1 = AR transcriptional IC50 (μM) in CV1 cells
CC1(C)CC(=O)C2=C(C1)Nc1ccc3ncccc3c1C2c1ccc(S(C)(=O)=O)cc1 (stereo not shown) [Compound A36] | Inactive
CC1(C)CC(=O)C2=C(C1)Nc1c(ccc3ncccc13)C2c1ccc([N+](=O)[O-])cc1 (stereo not shown) [Compound A44] | Inactive

Same assay, conditions: pcDNA-AR + MMTV-Luc, 0.1 nM R1881 plus test compound, 24 hrs, read-out: B1 = AR transcriptional IC50 (μM) in CV1 cells

Compound | IC50 [µM]
CC1(C)CC(=O)C2=C(C1)Nc1ccc3nc(C#N)ccc3c1C2c1ccc(F)c(F)c1 (racemic) [Compound A52, (±)-12-(3,4-difluorophenyl)-9,9-dimethyl-11-oxo-7,8,9,10,11,12-hexahydrobenzo[b][4,7]phenanthroline-3-carbonitrile] | > 10
CC1(C)CC2=C(C(c3ccc(F)c(F)c3)c3c(ccc4ncccc34)N2)S(=O)(=O)C1 (racemic) [Compound A53, (±)-12-(3,4-difluorophenyl)-9,9-dimethyl-8,9,10,12-tetrahydro-7H-thiopyrano[2,3-b][4,7]phenanthroline 11,11-dioxide] | > 10
CN1CC(=O)C2=C(C1)Nc1ccc3ncccc3c1C2c1ccc(F)c(F)c1 (racemic) [Compound A54, (±)-12-(3,4-difluorophenyl)-9-methyl-8,9,10,12-tetrahydropyrido[4,3-b][4,7]phenanthrolin-11(7H)-one] | > 10
CC1(C)CC(=O)C2=C(C1)Nc1ccc3nc(C(=O)O)ccc3c1C2c1ccc(F)c(F)c1 (racemic) [Compound A80, (±)-12-(3,4-difluorophenyl)-9,9-dimethyl-11-oxo-7,8,9,10,11,12-hexahydrobenzo[b][4,7]phenanthroline-3-carboxylic acid] | > 10
Cc1ccc2c3c(ccc2n1)NC1=C(C(=O)CC(C)(C)C1)C3c1ccc(F)c(F)c1 (racemic) [Compound A81, (±)-12-(3,4-difluorophenyl)-3,9,9-trimethyl-8,9,10,12-tetrahydrobenzo[b][4,7]phenanthrolin-11(7H)-one] | > 10
CC1(C)CC(=S)C2=C(C1)Nc1ccc3ncccc3c1C2c1ccc(F)c(F)c1 (racemic) [Compound A82, (±)-12-(3,4-difluorophenyl)-9,9-dimethyl-8,9,10,12-tetrahydrobenzo[b][4,7]phenanthroline-11(7H)-thione] | 9.1
CC1(C)CC(=O)C2=C(C1)Nc1ccc3ncncc3c1C2c1ccc(F)c(F)c1 (racemic) [Compound A86, (±)-12-(3,4-difluorophenyl)-9,9-dimethyl-8,9,10,12-tetrahydropyrimido[5,4-a]acridin-11(7H)-one] | 1.8
C[n+]1cccc2c3c(ccc21)NC1=C(C(=O)CC(C)(C)C1)C3c1ccc(F)c(F)c1 (racemic) [Compound A87, (±)-12-(3,4-difluorophenyl)-4,9,9-trimethyl-11-oxo-7,8,9,10,11,12-hexahydrobenzo[b][4,7]phenanthrolin-4-ium iodide] | 1.3
CC1(C)CC(=O)C2=C(C1)Oc1ccc3ccccc3c1C2c1ccc(F)c(F)c1 (racemic) [Compound A89, (±)-12-(3,4-difluorophenyl)-9,9-dimethyl-9,10-dihydro-8H-benzo[a]xanthen-11(12H)-one] | 0.4
CC1(C)CC(=O)C2=C(C1)Nc1cc(N3CCCC3)ccc1C2c1cc2ccccc2s1 (racemic) [Compound A94, (±)-9-(benzo[b]thiophen-2-yl)-3,3-dimethyl-6-(pyrrolidin-1-yl)-3,4,9,10-tetrahydroacridin-1(2H)-one] | > 10
CC1(C)CC(=O)C2=C(C1)Nc1ccc3ccccc3c1C2c1cc2ccccc2s1 (racemic) [Compound A95, (±)-12-(benzo[b]thiophen-2-yl)-9,9-dimethyl-8,9,10,12-tetrahydrobenzo[a]acridin-11(7H)-one] | 0.5
CC1(C)CC(=O)C2=C(C1)Nc1cc(N3CCCC3)ccc1C2c1ccc(Br)s1 (racemic) [Compound A98, (±)-9-(5-bromothiophen-2-yl)-3,3-dimethyl-6-(pyrrolidin-1l-yl)-3,4,9,10-tetrahydroacridin-1(2H)-one] | > 10
CC1(C)CC(=O)C2=C(C1)Nc1ccc3nccnc3c1C2c1ccc(Cl)s1 (racemic) [Compound A99, (±)-12-(5-chlorothiophen-2-yl)-9,9-dimethyl-8,9,10,12-tetrahydropyrazino[2,3-a]acridin-11(7H)-one] | 0.6
Cc1ccc(C2C3=C(CC(C)(C)CC3=O)Nc3ccc4nccnc4c32)s1 (racemic) [Compound A104, (±)-9,9-dimethyl-12-(5-methylthiophen-2-yl)-8,9,10,12-tetrahydropyrazino[2,3-a]acridin-11(7H)-one] | 2
CC1CC(=O)C2=C(C1)Nc1ccc3ncccc3c1C2c1ccc([N+](=O)[O-])cc1 (stereo not shown) [Compound A26] | 0.43
CC1(C)CC(=O)C2=C(C1)Nc1ccc3ncccc3c1C2c1ccc2nonc2c1 (stereo not shown) [Compound A30] | 1.8
CC1(C)CC(=O)C2=C(C1)Nc1ccc3ncccc3c1C2c1ccc(Cl)c(Cl)c1 (stereo not shown) [Compound A31] | 2.2
CC1(C)CC(=O)C2=C(C1)Nc1ccc3ncccc3c1C2c1ccc(F)c(F)c1 (stereo not shown) [Compound A32] | 0.4

Compound | IC50 [µM]
CC1(C)CC(=O)C2=C(C1)Nc1ccc3ncccc3c1C2c1ccc(Br)cn1 (stereo not shown) [Compound A33] | 3.4
CC1(C)CC(=O)C2=C(C1)Nc1ccc3ncccc3c1C2c1ccc(Br)nc1 (stereo not shown) [Compound A34] | 1.9
Cc1ccc(C2C3=C(CC(C)(C)CC3=O)Nc3ccc4ncccc4c32)nc1 (stereo not shown) [Compound A35] | 58
CC1(C)CC(=O)C2=C(C1)Nc1ccc3ncccc3c1C2c1ccc(C(=O)O)cc1 (stereo not shown) [Compound A37] | 38
CC1(C)CC(=O)C2=C(C1)Nc1ccc3ncccc3c1C2c1ccc([N+](=O)[O-])c(O)c1 (stereo not shown) [Compound A38] | 3.3
CC1(C)CC(=O)C2=C(C1)Nc1ccc3ncccc3c1C2c1ccc(B(O)O)c(F)c1 (stereo not shown) [Compound A39] | 52
CC1(C)CC(=O)C2=C(C1)Nc1ccc3ncccc3c1C2c1ccc(F)cc1 (stereo not shown) [Compound A40] | 1.7
CC1(C)CC(=O)C2=C(C1)Nc1ccc3ncccc3c1C2c1ccc(C(F)(F)F)cc1 (stereo not shown) [Compound A41] | 1.9
CC1(C)CC(=O)C2=C(C1)Nc1ccc3cnccc3c1C2c1ccc([N+](=O)[O-])cc1 (stereo not shown) [Compound A43] | 9.1
CC(C)C1CC(=O)C2=C(C1)Nc1ccc3ncccc3c1C2c1ccc([N+](=O)[O-])cc1 (stereo not shown) [Compound A45] | 0.3
O=C1CCC2=C1C(c1ccc([N+](=O)[O-])cc1)c1c(ccc3ncccc13)N2 (stereo not shown) [Compound A47] | 9.9
CC1(C)CC(=O)C2=C(C1)Nc1ccc3ncccc3c1C2c1ccc(C#N)cn1 (stereo not shown) [Compound A56] | 1.2
CC1(C)CC(=O)C2=C(C1)Nc1ccc3ncccc3c1C2c1cncnc1 (stereo not shown) [Compound A58] | > 10
CC1(C)CC(=O)C2=C(C1)Nc1ccc3ncccc3c1C2c1cnccn1 (stereo not shown) [Compound A65] | > 10
CC1(C)CC(=O)C2=C(C1)Nc1ccc3ncccc3c1C2c1cccs1 (stereo not shown) [Compound A66, 9,9-dimethyl-12-(thiophen-2-yl)-8,9,10,12-tetrahydrobenzo[b][4,7]phenanthrolin-11(7H)-one] | 4.1
CC1(C)CC(=O)C2=C(C1)Nc1ccc3cn[nH]c3c1C2c1ccc(F)c(F)c1 (stereo not shown) [Compound A77] | > 10
Cc1ccc(C2C3=C(CC(C)(C)CC3=O)Nc3cc(N4CCCC4)ccc32)s1 (stereo not shown) [Compound A105] | > 10
